Where a name gives a salt, the structure may show the parent alone.
How the values were obtained:
Abl (T315I) = biological target: T1, Abl (T315I) (Homo sapiens, UniProt P00519, T315I); assay: Abl (T315I) Kinase Assay (KinaseGlo luminescent detection of residual ATP); assay type: biochemical; settings: Abl (T315I) IC50 (nM), Abl (T315I) (Upstate, 17 ng/well), Abltide 100 uM, ATP 500 nM, 60 minutes at 37° C.
T1 construct: purchased Upstate
Protocol: The assay was performed similarly to the Abl kinase assay. Abl (T315I) (Upstate, 17 ng/well); Abltide substrate (100 uM) and ATP (500 nM) comprised the reaction mixture. Compound was similarly diluted, and the reaction plate was incubated for 60 minutes at 37° C.

Abl kinase = Abl kinase (Homo sapiens, UniProt P00519); assay: biochemical; settings: Abl IC50 (nM), Abl kinase (Invitrogen, 20 ng/well), Abltide 100 μM, ATP 500 nM, 37° C. for 60 minutes, top concentration 10 uM
Protocol: Kinase activity was assessed using luminescent detection (KinaseGlo, Promega) of residual ATP concentration in reaction mixtures containing optimized levels of kinase, substrate, ATP, compound and appropriate buffers. Kinase, substrate and ATP concentrations were determined per the supplier's recommendations. Briefly, this involved running concentration curves to select for optimal signal.
The reaction mixture (50 ul/well) consisted of Abl kinase (Invitrogen, 20 ng/well); Abltide peptide substrate (Upstate, 100 μM) and ATP (500 nM). Each compound was evaluated at a top concentration of 10 uM with 1:3 dilution steps, 10 dilution steps total. Compound was diluted into DMSO and transferred to the reaction plate, resulting in a final DMSO concentration of 2%. This amount of DMSO was determined not to interfere with the enzyme. The reaction was conducted at 37° C. for 60 minutes. The degree of inhibition was assessed using IC50 determinations, which were obtained using GraphPad Prism4.

SMILES | IC50 (Abl (T315I)) [nM] | IC50 (Abl kinase) [nM]
OCCN1CCN(c2cccc(Nc3ncc(/C=C/c4cccc5[nH]ccc45)cn3)c2)CC1 [2-(4-(3-(5-((E)-2-(1H-indol-4-yl)vinyl)pyrimidin-2-ylamino)phenyl)piperazin-1-yl)ethanol Hydrochloride] | – | 178
Nc1nc2ccc(/C=C/c3cnc(Nc4ccc(S(=O)(=O)N5CCC(NCCO)CC5)cc4)nc3)cc2s1 [2-[(1-{[4-({5-[(E)-2-(2-amino-1,3-benzothiazol-6-yl)vinyl]pyrimidin-2-yl}amino)phenyl]sulfonyl}piperidin-4-yl)amino]ethanol] | 146 | 158
O=S(=O)(c1ccc(Nc2ncc(/C=C/c3cccc4[nH]ncc34)cn2)cc1NCCO)N1CCNCC1 [2-{[5-({5-[(E)-2-(1H-indazol-4-yl)vinyl]pyrimidin-2-yl}amino)-2-(piperazin-1-ylsulfonyl)phenyl]amino}ethanol] | 233 | 6.5
Nc1nc2ccc(/C=C/c3cnc(Nc4ccc(S(=O)(=O)N5CCNCC5)c(NCCO)c4)nc3)cc2s1 [2-{[5-({5-[(E)-2-(2-amino-1,3-benzothiazol-6-yl)vinyl]pyrimidin-2-yl}amino)-2-(piperazin-1-ylsulfonyl)phenyl]amino}ethanol] | 156 | 154
O=S(=O)(c1ccc(Nc2ncc(/C=C/c3ccccc3)cn2)cc1NCCO)N1CCNCC1 [2-{[5-({5-[(E)-2-phenylvinyl]pyrimidin-2-yl}amino)-2-(piperazin-1-ylsulfonyl)phenyl]amino}ethanol trifluoroacetic acid salt] | 2500 | 131
Nc1noc2c(/C=C/c3cnc(Nc4ccc(S(=O)(=O)N5CCNCC5)c(NCCO)c4)nc3)cccc12 [2-{[5-({5-{(E)-2-(3-amino-1,2-benzisoxazol-7-yl)vinyl]pyrimidin-2-yl}amino)-2-(piperazin-1-ylsulfonyl)phenyl]amino}ethanol] | 1860 | 34
Cc1cc(S(=O)(=O)N2CCNCC2)ccc1Nc1ncc(/C=C/c2cccc(O)c2)cn1 [3-(2-{2-[2-Methyl-4-(piperazine-1-sulfonyl)-phenylamino]-pyrimidin-5-yl}-vinyl)-phenol] | 10400 | 3450
O=S(=O)(c1ccc(Nc2ncc(/C=C/c3cccc(O)c3)cn2)cc1F)N1CCNCC1 [3-(2-{2-[3-Fluoro-4-(piperazine-1-sulfonyl)-phenylamino]-pyrimidin-5-yl}-vinyl)-phenol] | 266 | 56
O=S(=O)(c1ccc(Nc2ncc(/C=C/c3cccc(O)c3)cn2)cc1OC(F)(F)F)N1CCNCC1 [3-(2-{2-[4-(Piperazine-1-sulfonyl)-3-trifluoromethoxy-phenylamino]-pyrimidin-5-yl}-vinyl)-phenol] | 752 | 97
Oc1ccc(Cl)c(/C=C/c2cnc(Nc3ccc(OCCN4CCCC4)cc3)nc2)c1 [3-((E)-2-(2-(4-(2-(pyrrolidin-1-yl)ethoxy)phenylamino)pyrimidin-5-yl)vinyl)-4-chlorophenol hydrochloride] | 972 | 13
Oc1cccc(/C=C/c2cnc(Nc3ccc(OCCN4CCCC4)cc3)nc2)c1 [3-((E)-2-(2-(4-(2-(pyrrolidin-1-yl)ethoxy)phenylamino)pyrimidin-5-yl)vinyl)phenol trifluoroacetate] | 297 | 30
O=S(=O)(c1ccc(Nc2ncc(/C=C/c3cccc(O)c3)cn2)cc1)N1CCC(CCO)CC1 [3-[2-(2-{4-[4-(2-Hydroxy-ethyl)-piperidine-1-sulfonyl]-phenylamino}-pyrimidin-5-yl)-vinyl]-phenol] | 160 | 18
O=S(=O)(c1ccc(Nc2ncc(/C=C/c3cccc(O)c3)cn2)cc1NCCO)N1CCNCC1 [3-{(E)-2-[2-({3-[(2-hydroxyethyl)amino]-4-(piperazin-1-ylsulfonyl)phenyl}amino)pyrimidin-5-yl]vinyl}phenol trifluoroacetic acid salt] | 78 | 7.3

The remaining lines, values ahead:

IC50 (Abl (T315I)) [nM] | IC50 (Abl kinase) [nM] | SMILES
700 | 66 | NCC(=O)N1CCC(S(=O)(=O)c2ccc(Nc3ncc(/C=C/c4cccc5[nH]ccc45)cn3)cc2)CC1 [1-(4-(4-(5-((E)-2-(1H-indol-4-yl)vinyl)pyrimidin-2-ylamino)phenylsulfonyl)piperidin-1-yl)-2-aminoethanone hydrochloride]
475 | 1130 | O=C(Nc1cn2cc(/C=C/c3cnc(Nc4ccc(S(=O)(=O)C5CCNCC5)cc4)nc3)ccc2n1)C(F)(F)F [2,2,2-Trifluoro-N-{6-[(E)-2-(2-{[4-(piperidin-4-ylsulfonyl)phenyl]amino}pyrimidin-5-yl)vinyl]imidazolo[1,2-a]pyridin-2-yl}acetamide trifluoroacetic acid salt]
202 | 8.4 | O=S(=O)(c1ccc(Nc2ncc(/C=C/c3cccc4[nH]ccc34)cn2)cc1)C1CCN(CCO)CC1 [2-(4-(4-(5-((E)-2-(1H-indol-4-yl)vinyl)pyrimidin-2-ylamino)phenylsulfonyl)piperidin-1-yl)ethanol Hydrochloride]
213 | 12 | O=S(=O)(c1ccc(Nc2ncc(/C=C/c3ccc(F)c(O)c3)cn2)cc1)C1CCNCC1 [2-Fluoro-5-(2-{2-[4-(piperidine-4-sulfonyl)-phenylamino]-pyrimidin-5-yl}-vinyl)-phenol]
225 | 22 | O=S(=O)(c1ccc(Nc2ncc(/C=C/c3cccc(O)c3)cn2)cc1)N1CCC(CO)CC1 [3-(2-{2-[4-(4-Hydroxymethyl-piperidine-1-sulfonyl)-phenylamino]-pyrimidin-5-yl}-vinyl)-phenol]
1.53e+06 | 44700 | O=S(=O)(c1ccc(Nc2ncc(/C=C/c3cccc(O)c3)cn2)c(C(F)(F)F)c1)N1CCNCC1 [3-(2-{2-[4-(Piperazine-1-sulfonyl)-2-trifluoromethyl-phenylamino]-pyrimidin-5-yl}-vinyl)-phenol]
1410 | 222 | O=S(=O)(c1ccc(Nc2ncc(/C=C/c3cccc(O)c3)cn2)cc1C(F)(F)F)N1CCNCC1 [3-(2-{2-[4-(Piperazine-1-sulfonyl)-3-trifluoromethyl-phenylamino]-pyrimidin-5-yl}-vinyl)-phenol]
37 | 4.1 | O=S(=O)(c1ccc(Nc2ncc(/C=C/c3cccc(O)c3)cn2)cc1)N1CCNCC1 [3-(2-{2-[4-(Piperazine-1-sulfonyl)-phenylamino]-pyrimidin-5-yl}-vinyl)-phenol]
96 | 31 | O=S(=O)(CC1CCNCC1)c1ccc(Nc2ncc(/C=C/c3cccc(O)c3)cn2)cc1 [3-(2-{2-[4-(Piperidin-4-ylmethanesulfonyl)-phenylamino]-pyrimidin-5-yl}-vinyl)-phenol]
53000 | 3670 | N=C(N)c1cccc(/C=C/c2cnc(Nc3ccc(S(=O)(=O)C4CCNCC4)cc3)nc2)c1 [3-(2-{2-[4-(Piperidine-4-sulfonyl)-phenylamino]-pyrimidin-5-yl}-vinyl)-benzamidine]
2070 | 198 | NS(=O)(=O)c1cccc(/C=C/c2cnc(Nc3ccc(S(=O)(=O)C4CCNCC4)cc3)nc2)c1 [3-(2-{2-[4-(Piperidine-4-sulfonyl)-phenylamino]-pyrimidin-5-yl}-vinyl)-benzenesulfonamide Hydrochloride]
22 | 1.7 | O=S(=O)(c1ccc(Nc2ncc(/C=C/c3cccc(O)c3)cn2)cc1)C1CCNCC1 [3-(2-{2-[4-(Piperidine-4-sulfonyl)-phenylamino]-pyrimidin-5-yl}-vinyl)-phenol]
2440 | 781 | NS(=O)(=O)c1cccc(/C=C/c2cnc(Nc3ccc(S(=O)(=O)N4CCCNCC4)cc3)nc2)c1 [3-(2-{2-[4-([1,4]Diazepane-1-sulfonyl)-phenylamino]-pyrimidin-5-yl}-vinyl)-benzenesulfonamide]
65 | 10 | Cc1nc(Nc2ccc(S(=O)(=O)C3CCNCC3)cc2)ncc1/C=C/c1cccc(O)c1 [3-((E)-2-(2-(4-(piperidin-4-ylsulfonyl)phenylamino)-4-methylpyrimidin-5-yl)vinyl)phenol hydrochloride]
522 | 210 | Nc1cc(C(F)(F)F)cc(/C=C/c2cnc(Nc3ccc(S(=O)(=O)C4CCNCC4)cc3)nc2)c1N [3-((E)-2-(2-(4-(piperidin-4-ylsulfonyl)phenylamino)pyrimidin-5-yl)vinyl)-5-(trifluoromethyl)benzene 1,2-diamine.]
192 | 32 | O=S(=O)(c1ccc(Nc2ccc(/C=C/c3cccc(O)c3)cn2)cc1)C1CCNCC1 [3-((E)-2-(6-(4-(piperidin-4-ylsulfonyl)phenylamino)pyridin-3-yl)vinyl)phenol hydrochloride]
2270 | 127 | O=C1Cc2c(/C=C/c3cnc(Nc4ccc(S(=O)(=O)C5CCNCC5)cc4)nc3)cccc2N1 [4-(2-{2-[4-(Piperidine-4-sulfonyl)-phenylamino]-pyrimidin-5-yl}-vinyl)-1,3-dihydro-indol-2-one, hydrogen chloride]
32 | 15 | O=S(=O)(c1ccc(Nc2ncc(/C=C/c3ccc(O)cc3)cn2)cc1)C1CCNCC1 [4-(2-{2-[4-(Piperidine-4-sulfonyl)-phenylamino]-pyrimidin-5-yl}-vinyl)-phenol]
298 | 977 | NS(=O)(=O)c1ccc(/C=C/c2cnc(Nc3ccc(S(=O)(=O)N4CCCNCC4)cc3)nc2)cc1 [4-(2-{2-[4-([1,4]Diazepane-1-sulfonyl)-phenylamino]-pyrimidin-5-yl}-vinyl)-benzenesulfonamide]

Source: patent publication US20070149508A1, “Six membered heteroaromatic inhibitors targeting resistant kinase mutations” (TargeGen, Inc., priority 2005, published 2007)
